Test results as given in ChEMBL document CHEMBL5365526 (J Med Chem, 2023).
The source made the active and inactive calls. The calls are words filed in the database; no cut-off is given here.

Columns and labels:
[1] = target: T1, von Hippel-Lindau disease tumor suppressor/Mitogen-activated protein kinase 7 (Homo sapiens, UniProt Q13164+P40337); test: PROTAC activity at VHL/ERK5 in human THP-1 cells assessed as decrease in IL-10 level at 0.5 uM incubated for 0.5 hrs followed by incubation with LPS for 24 hrs; format: cell-based; conditions: time 24.5 hrs
Target sequence in this assay (P40337 whole entry partner): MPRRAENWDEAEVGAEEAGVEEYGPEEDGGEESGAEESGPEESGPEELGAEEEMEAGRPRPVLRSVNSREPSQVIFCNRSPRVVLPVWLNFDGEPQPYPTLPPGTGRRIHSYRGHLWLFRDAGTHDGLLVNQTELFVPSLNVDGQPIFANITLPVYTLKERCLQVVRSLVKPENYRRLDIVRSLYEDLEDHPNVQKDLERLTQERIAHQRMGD
Target sequence in this assay (Q13164 2-816 limits assumed): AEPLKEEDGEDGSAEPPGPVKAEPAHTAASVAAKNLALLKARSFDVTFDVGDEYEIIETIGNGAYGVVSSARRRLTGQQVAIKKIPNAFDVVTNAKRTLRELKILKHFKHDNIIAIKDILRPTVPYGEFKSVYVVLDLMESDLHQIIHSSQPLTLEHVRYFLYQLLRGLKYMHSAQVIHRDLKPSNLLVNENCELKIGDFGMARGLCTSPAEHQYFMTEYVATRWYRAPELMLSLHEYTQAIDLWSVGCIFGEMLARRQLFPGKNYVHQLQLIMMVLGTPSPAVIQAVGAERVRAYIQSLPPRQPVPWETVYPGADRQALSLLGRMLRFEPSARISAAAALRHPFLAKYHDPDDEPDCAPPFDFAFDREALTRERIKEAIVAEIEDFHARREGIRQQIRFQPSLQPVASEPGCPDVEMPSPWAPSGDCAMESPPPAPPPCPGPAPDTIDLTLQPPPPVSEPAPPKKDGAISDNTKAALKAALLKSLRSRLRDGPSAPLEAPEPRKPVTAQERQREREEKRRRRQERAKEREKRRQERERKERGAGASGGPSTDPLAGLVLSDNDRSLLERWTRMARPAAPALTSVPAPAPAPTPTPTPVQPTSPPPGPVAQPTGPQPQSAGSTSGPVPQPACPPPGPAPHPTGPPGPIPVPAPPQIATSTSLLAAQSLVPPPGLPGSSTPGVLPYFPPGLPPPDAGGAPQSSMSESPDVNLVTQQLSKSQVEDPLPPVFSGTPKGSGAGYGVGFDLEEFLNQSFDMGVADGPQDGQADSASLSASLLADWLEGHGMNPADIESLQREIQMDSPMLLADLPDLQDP

HCT-116 [2] = test: Effect on trametinib-induced antitumor activity against human HCT-116 cells assessed as reduction in cell viability at 200 nM incubated for 72 hrs by CCK8 assay; format: functional, cell-based
[3] = target: T1, von Hippel-Lindau disease tumor suppressor/Mitogen-activated protein kinase 7; test: PROTAC activity at VHL/ERK5 in human NCI-H1975 cells assessed as maximal induction of ERK5 degradation incubated for 12 hrs by western blot analysis relative to control; format: cell-based
Target sequence in this assay (P40337 whole entry partner): as the sequence (P40337 whole entry partner) above
Target sequence in this assay (Q13164 2-816 limits assumed): as the sequence (Q13164 2-816 limits assumed) above

[4] = target: T1, von Hippel-Lindau disease tumor suppressor/Mitogen-activated protein kinase 7; test: PROTAC activity at VHL/ERK5 in human A-375 cells assessed as induction of ERK5 degradation at 200 nM incubated for 2 to 4 hrs by western blot analysis; format: cell-based; conditions: time 2-4 hrs
Target sequence in this assay (P40337 whole entry partner): as the sequence (P40337 whole entry partner) above
Target sequence in this assay (Q13164 2-816 limits assumed): as the sequence (Q13164 2-816 limits assumed) above

[5] = target: T1, von Hippel-Lindau disease tumor suppressor/Mitogen-activated protein kinase 7; test: PROTAC activity at VHL/ERK5 in human A-375 cells assessed as induction of ERK5 degradation at 200 nM pretreated for 1 hr with E3 ligase inhibitor, MLN4924 followed by incubation with compound for 12 hrs by western blot analysis; format: cell-based
Target sequence in this assay (P40337 whole entry partner): as the sequence (P40337 whole entry partner) above
Target sequence in this assay (Q13164 2-816 limits assumed): as the sequence (Q13164 2-816 limits assumed) above

[6] = target: T2, Mitogen-activated protein kinase 7 (Homo sapiens, UniProt Q13164); test: Inhibition of ERK5 (unknown origin) by ADP-Glo kinase assay
Target sequence in this assay (Q13164 whole entry): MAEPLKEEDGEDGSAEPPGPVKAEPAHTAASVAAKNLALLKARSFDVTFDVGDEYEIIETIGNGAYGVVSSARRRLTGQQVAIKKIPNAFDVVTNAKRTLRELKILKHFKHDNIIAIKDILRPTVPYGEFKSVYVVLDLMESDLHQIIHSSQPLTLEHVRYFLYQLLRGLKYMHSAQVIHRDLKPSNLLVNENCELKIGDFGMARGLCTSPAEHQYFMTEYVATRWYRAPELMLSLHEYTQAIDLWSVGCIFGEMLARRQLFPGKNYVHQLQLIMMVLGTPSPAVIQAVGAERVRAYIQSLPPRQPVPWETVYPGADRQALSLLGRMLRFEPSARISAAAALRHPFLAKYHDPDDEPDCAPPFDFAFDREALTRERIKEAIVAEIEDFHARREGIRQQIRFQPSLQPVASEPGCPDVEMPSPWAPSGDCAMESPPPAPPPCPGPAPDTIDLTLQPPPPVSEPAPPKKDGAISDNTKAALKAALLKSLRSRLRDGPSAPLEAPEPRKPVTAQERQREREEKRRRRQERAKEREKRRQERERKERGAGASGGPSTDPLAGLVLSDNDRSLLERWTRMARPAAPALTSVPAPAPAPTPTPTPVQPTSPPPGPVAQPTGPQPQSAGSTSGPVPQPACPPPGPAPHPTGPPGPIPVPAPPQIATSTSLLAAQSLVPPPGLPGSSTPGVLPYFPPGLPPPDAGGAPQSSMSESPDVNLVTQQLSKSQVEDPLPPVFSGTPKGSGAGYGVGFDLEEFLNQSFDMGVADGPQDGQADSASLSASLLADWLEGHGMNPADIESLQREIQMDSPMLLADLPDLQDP

[7] = target: T1, von Hippel-Lindau disease tumor suppressor/Mitogen-activated protein kinase 7; test: PROTAC activity at VHL/ERK5 in human A-375 cells assessed as maximal induction of ERK5 degradation incubated for 12 hrs by western blot analysis relative to control; format: cell-based
Target sequence in this assay (P40337 whole entry partner): as the sequence (P40337 whole entry partner) above
Target sequence in this assay (Q13164 2-816 limits assumed): as the sequence (Q13164 2-816 limits assumed) above

A-375 [8] = test: Antiproliferative activity against human A-375 cells assessed as reduction in cell viability incubated for 72 hrs by CCK8 assay; format: functional, cell-based
A-375 [9] = test: Effect on trametinib-induced antitumor activity against human A-375 cells assessed as reduction in cell viability at 200 nM incubated for 72 hrs by CCK8 assay; format: functional, cell-based
A-375 [10] = test: Effect on ERK5 mRNA expression in human A-375 cells at 10 to 1000 nM incubated for 24 hrs by real-time PCR analysis; format: functional, cell-based; conditions: dose 10-1000 nM
HCT-116 [11] = test: Effect on dabrafenib-induced antitumor activity against human HCT-116 cells assessed as reduction in cell viability at 200 nM incubated for 72 hrs by CCK8 assay; format: functional, cell-based
[12] = target: T1, von Hippel-Lindau disease tumor suppressor/Mitogen-activated protein kinase 7; test: PROTAC activity at VHL/ERK5 in human HepG2 cells assessed as maximal induction of ERK5 degradation incubated for 12 hrs by western blot analysis relative to control; format: cell-based
Target sequence in this assay (P40337 whole entry partner): as the sequence (P40337 whole entry partner) above
Target sequence in this assay (Q13164 2-816 limits assumed): as the sequence (Q13164 2-816 limits assumed) above

[13] = target: T1, von Hippel-Lindau disease tumor suppressor/Mitogen-activated protein kinase 7; test: PROTAC activity at VHL/ERK5 in human A-375 cells assessed as induction of ERK5 degradation at 200 nM pretreated for 1 hr with proteasome inhibitor, MG132 followed by incubation with compound for 12 hrs by western blot analysis; format: cell-based
[14] = target: T1, von Hippel-Lindau disease tumor suppressor/Mitogen-activated protein kinase 7; test: PROTAC activity at VHL/ERK5 in human A-375 cells assessed as induction of ERK5 degradation at 200 nM incubated for 12 hrs by western blot analysis; format: cell-based
A-375 [15] = test: Effect on dabrafenib-induced antitumor activity against human A-375 cells assessed as reduction in cell viability at 200 nM incubated for 72 hrs by CCK8 assay; format: functional, cell-based
A-375 [16] = test: Effect on vemurafenib-induced antitumor activity against human A-375 cells assessed as reduction in cell viability at 200 nM incubated for 72 hrs by CCK8 assay; format: functional, cell-based
A-375 [17] = test: Inhibition of M2 macrophage development in human A-375 cells assessed as inhibition of cell colony formation at 0.5 uM cultured in specific M2 medium and measured after 7 days in presence of LPS by crystal violet staining based analysis; format: functional; conditions: time 7.0 day
PC-3 = test: Antiproliferative activity against human PC-3 cells assessed as reduction in cell viability incubated for 72 hrs by CCK8 assay; format: functional, cell-based
HCT-116 [18] = test: Antiproliferative activity against human HCT-116 cells assessed as reduction in cell viability incubated for 72 hrs by CCK8 assay; format: functional, cell-based
[19] = target: T2, Mitogen-activated protein kinase 7; test: Inhibition of ERK5 (unknown origin) at 0.5 uM by kinase profiling analysis
Target sequence in this assay (Q13164 2-816 limits assumed): as above

HCT-116 [20] = test: Effect on vemurafenib-induced antitumor activity against human HCT-116 cells assessed as reduction in cell viability at 200 nM incubated for 72 hrs by CCK8 assay; format: functional, cell-based
[21] = target: T1, von Hippel-Lindau disease tumor suppressor/Mitogen-activated protein kinase 7; test: PROTAC activity at VHL/ERK5 in human A-375 cells assessed as induction of ERK5 degradation at 1.1 microM incubated for 12 hrs by western blot analysis; format: cell-based
[22] = target: T1, von Hippel-Lindau disease tumor suppressor/Mitogen-activated protein kinase 7; test: PROTAC activity at VHL/ERK5 in human MDA-MB-231 cells assessed as maximal induction of ERK5 degradation incubated for 12 hrs by western blot analysis relative to control; format: cell-based
NCI-H1975 = test: Antiproliferative activity against human NCI-H1975 cells assessed as reduction in cell viability incubated for 72 hrs by CCK8 assay; format: functional, cell-based
A-375 [23] = test: Inhibition of M2 macrophage development in human A-375 cells assessed as inhibition of cell colony formation at 0.5 uM cultured in macrophage M0 medium and measured after 7 days in presence of LPS by crystal violet staining based analysis; format: functional; conditions: time 7.0 day
HCT-116 [24] = test: Inhibition of M2 macrophage development in human HCT-116 cells assessed as inhibition of cell colony formation at 0.5 uM cultured in specific M2 medium and measured after 7 days in presence of LPS by crystal violet staining based analysis; format: functional; conditions: time 7.0 day
[25] = target: T1, von Hippel-Lindau disease tumor suppressor/Mitogen-activated protein kinase 7; test: PROTAC activity at VHL/ERK5 in human MDA-MB-231 cells assessed as induction of ERK5 degradation incubated for 12 hrs by western blot analysis; format: cell-based
Target sequence in this assay (Q13164 whole entry): as the sequence (Q13164 whole entry) above
Target sequence in this assay (P40337 whole entry): as the sequence (P40337 whole entry partner) above

[26] = target: T1, von Hippel-Lindau disease tumor suppressor/Mitogen-activated protein kinase 7; test: PROTAC activity at VHL/ERK5 in human THP-1 cells assessed as decrease in IL-6 level at 0.5 uM incubated for 0.5 hrs followed by incubation with LPS for 24 hrs; format: cell-based; conditions: time 24.5 hrs
HCT-116 [27] = test: Effect on cell migration in human HCT-116 cells at 0.01 to 1 uM incubated for 24 hrs by crystal violet staining based transwell assay; format: functional; conditions: dose 0.01-1 µM
[28] = target: T1, von Hippel-Lindau disease tumor suppressor/Mitogen-activated protein kinase 7; test: PROTAC activity at VHL/ERK5 in human HepG2 cells assessed as induction of ERK5 degradation incubated for 12 hrs by western blot analysis; format: cell-based
Target sequence in this assay (Q13164 whole entry): as the sequence (Q13164 whole entry) above
Target sequence in this assay (P40337 whole entry): as the sequence (P40337 whole entry partner) above

[29] = target: von Hippel-Lindau disease tumor suppressor/Bromodomain-containing protein 4 (Homo sapiens) (UniProt O60885+P40337); test: PROTAC activity at VHL/BRD4 in human A-375 cells assessed as induction of BRD4 degradation at 6 to 500 nM incubated for 12 hrs by western bot analysis; format: cell-based; conditions: dose 6-500 nM
Sequence of von Hippel-Lindau disease tumor suppressor/Bromodomain-containing protein 4 (Homo sapiens) (P40337 whole entry, looked up, other chains not shown): as the sequence (P40337 whole entry partner) above

[30] = target: von Hippel-Lindau disease tumor suppressor/Serine/threonine-protein kinase DCLK1 (Homo sapiens) (UniProt O15075+P40337); test: PROTAC activity at VHL/DCLK1 in human A-375 cells assessed as induction of DCLK1 degradation at 6 to 500 nM incubated for 12 hrs by western bot analysis; format: cell-based; conditions: dose 6-500 nM
Sequence of von Hippel-Lindau disease tumor suppressor/Serine/threonine-protein kinase DCLK1 (Homo sapiens) (O15075 whole entry, looked up): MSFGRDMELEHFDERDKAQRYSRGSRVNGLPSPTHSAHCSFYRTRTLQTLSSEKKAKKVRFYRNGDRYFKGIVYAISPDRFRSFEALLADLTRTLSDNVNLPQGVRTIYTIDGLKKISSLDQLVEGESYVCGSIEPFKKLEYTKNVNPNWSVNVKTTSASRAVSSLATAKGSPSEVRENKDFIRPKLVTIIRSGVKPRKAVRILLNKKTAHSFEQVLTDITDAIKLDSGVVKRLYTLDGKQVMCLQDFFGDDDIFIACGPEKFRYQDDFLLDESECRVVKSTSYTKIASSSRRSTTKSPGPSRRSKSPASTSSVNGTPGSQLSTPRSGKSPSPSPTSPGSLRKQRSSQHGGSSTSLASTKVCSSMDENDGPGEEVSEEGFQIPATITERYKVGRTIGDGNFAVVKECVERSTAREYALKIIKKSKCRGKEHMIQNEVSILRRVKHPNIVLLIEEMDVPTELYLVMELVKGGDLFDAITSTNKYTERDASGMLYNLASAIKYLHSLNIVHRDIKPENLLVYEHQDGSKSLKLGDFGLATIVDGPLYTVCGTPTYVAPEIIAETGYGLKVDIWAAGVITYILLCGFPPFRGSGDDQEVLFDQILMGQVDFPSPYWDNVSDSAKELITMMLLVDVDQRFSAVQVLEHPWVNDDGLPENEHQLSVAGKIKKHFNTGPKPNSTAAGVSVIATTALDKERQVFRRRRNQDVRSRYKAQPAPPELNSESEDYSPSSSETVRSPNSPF
Sequence of von Hippel-Lindau disease tumor suppressor/Serine/threonine-protein kinase DCLK1 (Homo sapiens) (P40337 whole entry, looked up): as the sequence (P40337 whole entry partner) above

[31] = target: T1, von Hippel-Lindau disease tumor suppressor/Mitogen-activated protein kinase 7; test: PROTAC activity at VHL/ERK5 in human THP-1 cells assessed as induction of ERK5 degradation at 0.5 uM incubated for 0.5 hrs followed by incubation with LPS for 24 hrs by western blot analysis; format: cell-based; conditions: time 24.5 hrs
[32] = target: T1, von Hippel-Lindau disease tumor suppressor/Mitogen-activated protein kinase 7; test: PROTAC activity at VHL/ERK5 in human NCI-H1975 cells assessed as induction of ERK5 degradation incubated for 12 hrs by western blot analysis; format: cell-based
Target sequence in this assay (Q13164 whole entry): as the sequence (Q13164 whole entry) above
Target sequence in this assay (P40337 whole entry): as the sequence (P40337 whole entry partner) above

Activity [1]: Active
Activity [3]: 94.7%
Activity [4]: Active
Activity [5]: inactive
IC50 [6]: 62.4 nM
Activity [7]: 91.4%
Activity [12]: 92.7%
Activity [13]: inactive
Activity [14]: Active
inhibition [19]: Active
Activity [21]: inactive
Activity [22]: 86.7%
DC50 [25]: 22.7 nM
Activity [26]: Active
DC50 [28]: 13.7 nM
Activity [29]: inactive
Activity [30]: inactive
Activity [31]: Active
DC50 [32]: 11.5 nM
SMILES: COc1cc(N2CCN(CCCCCCC(=O)N[C@H](C(=O)N3C[C@H](O)C[C@H]3C(=O)N[C@@H](C)c3ccc(-c4scnc4C)cc3)C(C)(C)C)CC2)ccc1Nc1ncc2c(n1)N(C)c1ccccc1C(=O)N2C
Activity (HCT-116 [2]): inactive
Activity (A-375 [8]): inactive
Activity (A-375 [9]): inactive
Activity (A-375 [10]): inactive
Activity (HCT-116 [11]): inactive
Activity (A-375 [15]): inactive
Activity (A-375 [16]): inactive
inhibition (A-375 [17]): Active
Activity (PC-3): inactive
Activity (HCT-116 [18]): inactive
Activity (HCT-116 [20]): inactive
Activity (NCI-H1975): inactive
inhibition (A-375 [23]): Active
inhibition (HCT-116 [24]): Active
Activity (HCT-116 [27]): inactive
